In PubChem BioAssay (NCI) one finds GI50 and TGI data, which are given here for eight compounds.

Some test systems named below: A498 renal; MCF7 breast; NCI-H23 lung; OVCAR-3 ovarian; OVCAR-8 ovarian; RXF 393 renal; SF-539 CNS; SK-MEL-2 melanoma; SNB-19 CNS; SW-620 colon.
Common to all, as to test: NCI anticancer screen, dose series, 48 h

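96-well plates; 48 h exposure; 5 concentrations. Endpoints by linear interpolation between flanking doses. Not reached: highest tested concentration assigned. GI50 is the concentration that inhibits growth by half. TGI denotes the concentration required for complete inhibition of growth.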

Take `c1cc[n+](Cc2c3ccccc3cc3c2ccc2ccccc23)cc1`: the GI50 is 14.4 µM in the assay with A498 renal; 3.25 µM in the assay on MCF7 breast; 1.71 µM with NCI-H23 lung; 2.6 µM in the assay on OVCAR-3 ovarian; 3.49 µM in the assay with OVCAR-8 ovarian; 8.61 µM in the assay on RXF 393 renal. The GI50 was 2.55 µM with SF-539 CNS, 2.14 µM with SK-MEL-2 melanoma, 1.18 µM in the assay with SNB-19 CNS and 6.16 µM in the assay on SW-620 colon. For the same compound, the TGI in the assay on A498 renal is 40.9 µM; in the assay on MCF7 breast it was 13.2 µM; in the assay on NCI-H23 lung, 11.6 µM; in the assay on OVCAR-3 ovarian, 11.4 µM; in the assay on OVCAR-8 ovarian, 16.1 µM; in the assay with RXF 393 renal, 47.5 µM. Moreover, the TGI with SF-539 CNS is 10.5 µM; with SK-MEL-2 melanoma, 4.69 µM; in the assay on SNB-19 CNS it was 7.85 µM; in the assay on SW-620 colon, 21.9 µM.
Take `CC(C)C[C@H](NC(=O)[C@@H](Cc1ccccc1)n1ccc(Nc2ccccc2)cc1=O)B(O)O`: the GI50 in the assay with A498 renal was 0.0262 µM; with MCF7 breast it was 0.374 µM; in the assay on NCI-H23 lung, 0.835 µM; with OVCAR-3 ovarian it was 0.233 µM; with OVCAR-8 ovarian, 1.88 µM; with RXF 393 renal it was 0.234 µM. Also, the GI50 in the assay on SF-539 CNS was 0.174 µM; with SK-MEL-2 melanoma it was 0.316 µM; in the assay with SNB-19 CNS, 0.714 µM; in the assay on SW-620 colon, 0.32 µM. Besides, the TGI with A498 renal turned out to be 0.36 µM; in the assay with MCF7 breast, 14.6 µM; in the assay with NCI-H23 lung it was 19.4 µM; in the assay with OVCAR-3 ovarian, 0.561 µM; in the assay with OVCAR-8 ovarian, 74.6 µM; in the assay with RXF 393 renal, 0.564 µM. The TGI is 0.484 µM in the assay with SF-539 CNS, 1.59 µM in the assay with SK-MEL-2 melanoma, > 100 µM in the assay with SNB-19 CNS and 14.4 µM in the assay on SW-620 colon.
On to `CCc1ccc(Oc2c(-c3ccc(OCCc4cccc(C(F)(F)F)c4)cc3O)n[nH]c2C(F)(F)F)cc1`, for which the GI50 is 5.93 µM with A498 renal; 2.24 µM in the assay on MCF7 breast; 1.53 µM in the assay with NCI-H23 lung; 1.52 µM in the assay on OVCAR-3 ovarian; 5.25 µM with OVCAR-8 ovarian; 4.94 µM in the assay with RXF 393 renal. Further, the GI50 in the assay with SF-539 CNS was 7.39 µM; in the assay with SK-MEL-2 melanoma it was 6.54 µM; in the assay on SNB-19 CNS, 2.69 µM; in the assay with SW-620 colon, 1.96 µM. For the same compound, the TGI in the assay on A498 renal came to 12.8 µM; in the assay with MCF7 breast it was 7.82 µM; with NCI-H23 lung, 5.89 µM; in the assay on OVCAR-3 ovarian, 4.66 µM; in the assay on OVCAR-8 ovarian, 11.6 µM; in the assay on RXF 393 renal it was 11.4 µM. Moreover, the TGI amounted to 14 µM in the assay with SF-539 CNS, 13.4 µM in the assay on SK-MEL-2 melanoma, 9.03 µM in the assay with SNB-19 CNS and 7.57 µM in the assay on SW-620 colon.
Consider `CCOC(=O)c1c(-c2ccccc2)n2c(=O)cc(C)c3c(O)c(O)cc1c32`, for which the GI50 in the assay on A498 renal was 13 µM; in the assay with MCF7 breast, 3.28 µM; with NCI-H23 lung, 6.06 µM; in the assay on OVCAR-3 ovarian, 2.38 µM; with OVCAR-8 ovarian, 4.23 µM; in the assay on RXF 393 renal, 11.9 µM. Further, the GI50 in the assay with SF-539 CNS was 4.56 µM; with SK-MEL-2 melanoma it was 4.09 µM; in the assay with SNB-19 CNS, 11.4 µM; with SW-620 colon, 4.74 µM. The TGI came to 37.6 µM in the assay on A498 renal; 13.4 µM in the assay with MCF7 breast; 37.5 µM in the assay with NCI-H23 lung; 17 µM in the assay with OVCAR-3 ovarian; 22.1 µM in the assay on OVCAR-8 ovarian; 30.9 µM with RXF 393 renal. Also, the TGI is 25.1 µM with SF-539 CNS, 41.3 µM with SK-MEL-2 melanoma, 35.7 µM in the assay with SNB-19 CNS and 18.5 µM in the assay with SW-620 colon.
On to `CCN1CCN(Cc2ccc(NC(=O)Nc3nc(-c4cc(OC)c(OC)c(OC)c4)cs3)cc2C(F)(F)F)CC1`, for which the GI50 in the assay with A498 renal was 1.96 µM; in the assay with MCF7 breast, 1.44 µM; in the assay on NCI-H23 lung, 1.69 µM; in the assay on OVCAR-3 ovarian, 2.28 µM; with RXF 393 renal it was 1.41 µM; in the assay on SF-539 CNS it was 1.69 µM. Further, the GI50 was 1.9 µM with SK-MEL-2 melanoma, 1.75 µM in the assay on SNB-19 CNS and 1.62 µM in the assay on SW-620 colon. The TGI is 5.48 µM in the assay on A498 renal; 3.02 µM in the assay on MCF7 breast; 3.59 µM with NCI-H23 lung; 6.89 µM in the assay on OVCAR-3 ovarian; 2.84 µM in the assay on RXF 393 renal; 3.12 µM in the assay with SF-539 CNS. The TGI with SK-MEL-2 melanoma was determined as 3.61 µM; in the assay on SNB-19 CNS, 3.43 µM; with SW-620 colon, 3.31 µM.
Take `O=C1NC(c2ccc3ccccc3c2)Nc2ccccc21` (configuration not stated): the TGI with A498 renal, in the assay with MCF7 breast, in the assay with NCI-H23 lung, with OVCAR-8 ovarian, in the assay with RXF 393 renal and in the assay on SF-539 CNS was > 100 µM throughout. Besides, the TGI in the assay on SK-MEL-2 melanoma, in the assay on SNB-19 CNS and in the assay with SW-620 colon was > 100 µM throughout.
Consider `O=S(=O)(NCCNc1nccc(-c2c(-c3ccc(F)cc3)nc3sccn23)n1)c1ccc(O)cc1`, for which the GI50 with A498 renal was 8.8 µM; in the assay on MCF7 breast, 0.476 µM; in the assay on NCI-H23 lung it was 4.96 µM; with OVCAR-8 ovarian it was 1.98 µM; in the assay with RXF 393 renal, 4.27 µM; in the assay with SF-539 CNS, 11.3 µM. Besides, the GI50 with SK-MEL-2 melanoma is 4.18 µM; in the assay with SNB-19 CNS, 12.5 µM; with SW-620 colon, 4.47 µM. Besides, the TGI with A498 renal turned out to be 23.2 µM; in the assay with MCF7 breast, 14.4 µM; in the assay with NCI-H23 lung, 28.1 µM; with OVCAR-8 ovarian, 22.5 µM; in the assay with RXF 393 renal, 24.8 µM; in the assay on SF-539 CNS, 30.7 µM. For the same compound, the TGI with SK-MEL-2 melanoma was 17.3 µM; in the assay with SNB-19 CNS, > 100 µM; in the assay on SW-620 colon, 41.8 µM.
Turning to `Cc1cc(S(=O)(=O)Nc2nc3ccccc3c(=O)n2Cc2ccco2)c(S)cc1Cl`, the GI50 is 33.1 µM in the assay with A498 renal; 41.5 µM in the assay on MCF7 breast; 46 µM in the assay with NCI-H23 lung; 30.5 µM with OVCAR-3 ovarian; 57.7 µM in the assay with OVCAR-8 ovarian; 61.7 µM in the assay on RXF 393 renal. The GI50 in the assay on SF-539 CNS is 31.5 µM; in the assay with SW-620 colon it was 30.7 µM. The TGI with A498 renal, with MCF7 breast, in the assay on NCI-H23 lung, in the assay with OVCAR-3 ovarian, in the assay with OVCAR-8 ovarian and in the assay on RXF 393 renal was > 100 µM throughout. Besides, the TGI is 84.5 µM with SF-539 CNS, > 100 µM with SNB-19 CNS and > 100 µM in the assay on SW-620 colon.
